From US8173863B2, “Sucrose biosensors and methods of using the same” (Carnegie Institution of Washington, priority 2005, dated 2012) come the findings set out here.

Experiment [1] concerns the target Agrobacterium tumefaciens AtThuE sensor FLIPsuc4μ variant D115N (Agrobacterium fabrum, UniProt A9CF11, D135N/N212D). The experiment in a line: FRET ratio change of D115N mutant. The format is binding. How it is done: (§1) Substrate titration curves and substrate specificity analysis were performed on Safire (Tecan) fluorometer. ECFP was excited at 433 nm and emission was set to 485 nm and 528 nm for ECFP and EYFP, respectively (bandwidth 12 nm). All in vitro analyses were performed in 20 mM MOPS buffer at pH 7. FRET was determined as EYFP-ECFP emission intensity ratio. Using the change in ratio upon ligand binding, binding constants (Kd) were determined by fitting substrate titration curves to equation 1: S=1−(r−rmin)(rmax−rmin)=[S]b/[P]t=n[S]/(Kd+[S]), where [S] is substrate concentration; [S]b, concentration of bound substrate; n, number of binding sites; [P]t, total concentration of binding protein; r, ratio; rmin, minimum ratio in absence of ligand; rmax, maximum ratio at saturation. Hill coefficients were determined using Hill equation 2: S=(n[S]^n)/(Kd+[S]^n).
To expand the dynamic range of the sucrose sensor, site directed mutagenesis was used as described above to lower the binding affinity of the sucrose binding domain. Affinity mutants of FLIPsuc4μ were generated. Alignment together with modeling of AtThuE with maltose binding proteins that have been crystallized helped predict residues important for ligand binding. […]

For experiment [2], the target named is Agrobacterium tumefaciens AtThuE sensor FLIPsuc4μ variant F113A (FLIPsuc10μ, FLIPsucF113A) (Agrobacterium fabrum, UniProt A9CF11, F133A/N212D). In words: in vitro FRET titration of affinity mutant FLIPsuc10μ. To be noted: for Δratio (change in ratio): in vitro, no binding to saturated binding. It counts as binding. How it is done:
as §1
(§2) To expand the dynamic range of the sucrose sensor, site directed mutagenesis was used as described above to lower the binding affinity of the sucrose binding domain. Affinity mutants of FLIPsuc4μ were generated. Alignment together with modeling of AtThuE with maltose binding proteins that have been crystallized helped predict residues important for ligand binding. […] Mutant forms carrying substitutions F113A, D115A, D115E, D115N, W244A, Y246A and W283A were generated using Kunkel mutagenesis (Kunkel et al. 1991) in the mutant background of FLIPsuc41t. The affinity mutants were designated as FLIPsucF113A, FLIPsucW283A, FLIPsucD115A, FLIPsucD115E, FLIPsucY246A, and FLIPsucW244A. All six mutants have lower affinities for sucrose than that of FLIPsuc4μ, with a Kd value varying from 10 μM to the higher mM range (Table 1). The starting ratio between EYFP and ECFP ranges from 1.4 to close to 2.0, which is also similar to what has been seen in other sugar sensors (FLIPmal, FLIPglu and FLIPrib). Introducing substitution F113A into the ThuE moiety of FLIPsuc4μ produced FLIPsuc10μ, which has a binding constant (Kd) of 10 μM for sucrose, thus providing a range for sucrose quantification between at least 1 μM and 90 μM (Table 1).

The target in experiment [3] is Agrobacterium tumefaciens AtThuE sensor FLIPsuc4μ variant Y246A (FLIPsuc15m, FLIPsucY246A) (Agrobacterium fabrum, UniProt A9CF11, N212D/Y266A). The experiment in a line: in vitro FRET titration of affinity mutant FLIPsuc15m. The format is binding. How it is done:
as §1, §2

Experiment [4] deals with Agrobacterium tumefaciens AtThuE sensor FLIPsuc4μ variant D115A (FLIPsuc1m, FLIPsucD115A) (Agrobacterium fabrum, UniProt A9CF11, D135A/N212D). In words: in vitro FRET titration of affinity mutant FLIPsuc1m. It counts as binding. To be noted: for Δratio (delta ratio): no binding to saturated binding. How it is done: as §1, §2
Experiment [5] has as its target Agrobacterium tumefaciens AtThuE sensor FLIPsucW283A with linker shortened by 18 amino acids (FLIPsucW283A-18AA, FLIPThuEW283A-18AA) (Agrobacterium fabrum, UniProt A9CF11, N212D/W303A). In words: FRET ratio change of short-linker sensor FLIPsucW283A-18AA. It counts as binding. To be noted: FIG. 3. How it is done: as §1
In an attempt to improve the delta ratio of the sucrose sensor the sensor containing the W283A mutation was cloned into a construct with a shorter linker sequence between the GFP variants and the binding protein. Deuschle et al. (2005) has shown that the length of the linker sequence plays a major role in the maximum change in ratio. A construct corresponding to FLIPglu600μΔ5 was constructed which gives a sucrose sensor whose linker was shortened by 18 amino acids (FLIPsucW283A-18AA). […]

The target in experiment [6] is Agrobacterium tumefaciens AtThuE sensor FLIPsuc4μ variant W283A (FLIPsuc88μ, FLIPsucW283A) (Agrobacterium fabrum, UniProt A9CF11, N212D/W303A). The experiment in a line: in vitro FRET titration of affinity mutant FLIPsuc88μ. The format is binding. As to the method:
as §1, §2

Experiment [7] concerns the target Agrobacterium tumefaciens AtThuE sensor FLIPsuc4μ variant W244A (FLIPsuc46m, FLIPsucW244A) (Agrobacterium fabrum, UniProt A9CF11, N212D/W264A). In words: in vitro FRET titration of affinity mutant FLIPsuc46m. The format is binding. How it is done: as §1, §2
In experiment [8] the target is Agrobacterium tumefaciens ThuE (AtThuE) sucrose binding protein carrying N192D (SEQ ID NO: 2) fused between ECFP and EYFP, sensor FLIPsuc4μ (FLIPsuc), wt (indic (Agrobacterium fabrum, UniProt A9CF11, N212D)). The experiment in a line: in vitro FRET titration of purified sensor FLIPsuc4μ.
Description: (§3) Because the maltose/trehalose/sucrose binding protein from Agrobacterium tumefaciens (AtThuE) is 78.9% identical over predicted mature region of the SmThuE protein (SEQ ID NO: 2) and is 21.4% homologous to the maltose binding protein from E. coli (malE), we attempted to clone the AtThuE binding protein. To isolate the gene, a PCR product from genomic Agrobacterium tumefaciens (strain C58C1) DNA encoding mature AtThuE without signal sequence and stop codon was cloned into the KpnI site between ECFP and EYFP genes (FIG. 1A). The chimeric gene was inserted into pRSET (Invitrogen) and transferred to E. coli BL21(DE3)Gold (Stratagene). […] It is unknown whether this difference corresponds to a mutation or natural variation. Since N192D was outside the binding pocket and since AtThuE carrying the mutation was functional as a sugar sensor (see Table 1), all further experiments were carried out with the nanosensor named FLIPsuc4μ carrying the mutation N192D. FLIPsuc proteins were extracted from BL21(DE3)gold and purified as described (Fehr et al. 2002).
(§4) A DNA fragment encoding the mature Agrobacterium tumefaciens maltose/trehalose/sucrose BP protein was fused between the ECFP and EYFP sequences as described above. The chimeric gene was expressed in E. coli and the protein product purified and assayed for substrate specificity.
as §1
(§5) SmThuE is mainly functioning as a trehalose and maltose binding protein. Sucrose is thought to be transported to a lesser extent. FLIPsuc4μ was therefore incubated with trehalose, maltose and other related sugars to test for its binding capacities. Substrate-induced conformational changes were measured using FRET in micro plate assays. […] Maltose and glucose were chosen for further analysis of FLIPsuc4μ and its mutants since they are important sugars in plants and might therefore interfere with sucrose measurements in vivo. […] Most mutants show similar patterns with higher affinity for maltose than sucrose. FLIPsuc-10μ is the most significant example with an 83 times higher affinity for maltose than sucrose (Table 1). The D115 mutants both show the highest affinity for maltose compared to sucrose and […], but to a different extent.

The target of experiment [9] is Agrobacterium tumefaciens ThuE (AtThuE) sucrose binding protein carrying N192D (SEQ ID NO: 2) fused between ECFP and EYFP, sensor FLIPsuc4μ (FLIPsuc), wt (indicator SEQ ID NO: 4) (Agrobacterium fabrum, UniProt A9CF11, N212D). Described as above.
Description: as §3, §4, §1, §5

Experiment [10] deals with Agrobacterium tumefaciens AtThuE sensor FLIPsuc4μ variant D115E (FLIPsuc3m, FLIPsucD115E) (Agrobacterium fabrum, UniProt A9CF11, D135E/N212D). In words: in vitro FRET titration of affinity mutant FLIPsuc3m. The format is binding. Particulars: for Δratio (delta ratio): no binding to saturated binding. As to the method:
as §1, §2

[11] abbreviates: in vitro, no binding to saturated binding.
[12] abbreviates: 20 mM MOPS pH 7, FRET titration.

With `OC[C@H]1O[C@@](CO)(O[C@H]2O[C@H](CO)[C@@H](O)[C@H](O)[C@H]2O)[C@@H](O)[C@@H]1O` [sucrose], in experiment [1], the “change in ratio upon addition of sucrose” value is “no longer seen”. Besides, the Kd in [2] was 0.01 mM; in experiment [3], 14.6 mM; in experiment [4] (setting [12]) it was 1.35 mM; in [4] (FRET titration) it was 1.4 mM; in [6] (Kd, in vitro, 20 mM MOPS pH 7, FRET titration), 0.088 mM; in [7] it was 46.2 mM. In addition, the Kd amounted to 0.0037 mM in experiment [9], 2.87 mM in experiment [10] (setting [12]) and 2.9 mM in experiment [10] (FRET titration). Moreover, the “Δratio (change in ratio)” value in experiment [2] was 0.1-0.15; in [2] (listed as Sucrose), 0.12. Besides, the Δratio in [3] (setting [11]) is recorded as 0.14; in experiment [6] (setting [11]) it was 0.29; in experiment [7] (setting [11]), 0.4. The “Δratio (delta ratio)” value in experiment [4] was “at least 0.6”; in [4] (listed as Sucrose) it was 0.68; in experiment [10] it was around 0.4; in experiment [10] (listed as Sucrose), 0.36. In experiment [5], the “ratio change relative to original construct (FLIPsucW283A)” value was found to be 3 fold. Also, in experiment [6] (ratio of Kd), the “affinity for sucrose relative to maltose” value is “three times higher than for maltose”. In experiment [8] (concentration-dependent, FIG. 1B), the “change in FRET on titration” value is listed as “concentration-dependent decrease in FRET”. Moreover, in experiment [8] (in vitro, no binding to saturated binding, listed as Sucrose), the “Δratio (maximum ratio change)” value is listed as 0.18. The Hill coefficient in [8] (sucrose titration, pH 7) amounted to 1.04.

Broadly, the Kd is the equilibrium constant for the complex coming apart. For orientation: Hill coefficient means the slope factor of the fitted curve.
